The values below come from ChEMBL document CHEMBL3870333, “Synthesis of Keap1-phosphorylated p62 and Keap1-Nrf2 protein-protein interaction inhibitors and their inhibitory activity” (Bioorg Med Chem Lett, 2016).

Structures are written as SMILES.

For one assay, the species on record is Homo sapiens. The experiment in a line: Selectivity index, ratio of IC50 for recombinant GST-His-tagged Keap1-DC domain (321 to 609 residues) (unknown origin) expressed in Escherichia coli/FAM-labeled Nrf2 (unknown origin) interaction to IC50 for recombinant GST-His-tagged Keap1-DC domain (321 to 609 residues) (unknown origin) expressed in Escherichia coli/FAM-labeled phosphorylated p62 (unknown origin) interaction.

The target in another assay is Keap1/Nrf2 (Homo sapiens, UniProt Q14145). The experiment in a line: Inhibition of recombinant GST-His-tagged Keap1-DC domain (321 to 609 residues) (unknown origin) expressed in Escherichia coli/FAM-labeled Nrf2 (unknown origin) interaction measured after 30 mins by fluorescence polarization assay. (In general: Fluorescence polarisation rises when a labelled molecule tumbles more slowly, as on binding a larger partner.)

The target of assay [1] is Sequestosome-1/Kelch-like ECH-associated protein 1 (Homo sapiens, UniProt Q14145). Description: Inhibition of recombinant GST-His-tagged Keap1-DC domain (321 to 609 residues) (unknown origin) expressed in Escherichia coli/FAM-labeled phosphorylated p62 (unknown origin) interaction measured after 30 mins by fluorescence polarization assay.
Sequence of Sequestosome-1/Kelch-like ECH-associated protein 1 (Q14145 whole entry, the tested form may be a part): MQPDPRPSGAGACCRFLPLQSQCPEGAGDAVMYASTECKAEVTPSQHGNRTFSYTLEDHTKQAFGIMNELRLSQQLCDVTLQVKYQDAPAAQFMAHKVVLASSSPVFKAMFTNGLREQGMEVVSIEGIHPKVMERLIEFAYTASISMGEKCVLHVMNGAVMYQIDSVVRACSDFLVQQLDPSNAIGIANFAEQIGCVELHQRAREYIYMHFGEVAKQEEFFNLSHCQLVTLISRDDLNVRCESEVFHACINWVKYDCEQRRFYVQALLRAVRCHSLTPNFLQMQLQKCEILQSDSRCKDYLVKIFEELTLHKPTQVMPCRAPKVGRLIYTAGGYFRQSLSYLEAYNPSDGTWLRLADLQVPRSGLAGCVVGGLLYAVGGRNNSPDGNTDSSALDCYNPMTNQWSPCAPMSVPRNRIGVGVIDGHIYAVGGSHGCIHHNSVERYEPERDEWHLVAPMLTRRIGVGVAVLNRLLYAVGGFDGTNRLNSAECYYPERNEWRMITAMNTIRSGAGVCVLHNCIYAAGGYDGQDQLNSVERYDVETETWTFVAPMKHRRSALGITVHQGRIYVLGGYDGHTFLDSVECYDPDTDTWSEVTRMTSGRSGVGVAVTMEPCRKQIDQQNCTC
Sequence of Sequestosome-1/Kelch-like ECH-associated protein 1 (Q13501 whole entry, further chain, the tested form may be a part): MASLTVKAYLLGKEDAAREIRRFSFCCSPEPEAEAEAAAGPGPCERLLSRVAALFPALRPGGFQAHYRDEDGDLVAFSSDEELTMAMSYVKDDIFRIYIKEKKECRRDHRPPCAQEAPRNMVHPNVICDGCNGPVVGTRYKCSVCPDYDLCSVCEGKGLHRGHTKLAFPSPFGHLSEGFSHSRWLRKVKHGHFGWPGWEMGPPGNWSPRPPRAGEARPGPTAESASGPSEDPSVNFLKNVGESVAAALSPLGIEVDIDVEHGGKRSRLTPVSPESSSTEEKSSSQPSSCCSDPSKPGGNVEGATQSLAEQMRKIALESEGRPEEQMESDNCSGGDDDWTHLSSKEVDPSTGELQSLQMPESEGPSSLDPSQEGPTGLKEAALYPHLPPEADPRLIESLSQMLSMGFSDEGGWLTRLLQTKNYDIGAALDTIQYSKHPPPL

Sequence of Keap1/Nrf2 (Q16236 whole entry, the tested form may be a part): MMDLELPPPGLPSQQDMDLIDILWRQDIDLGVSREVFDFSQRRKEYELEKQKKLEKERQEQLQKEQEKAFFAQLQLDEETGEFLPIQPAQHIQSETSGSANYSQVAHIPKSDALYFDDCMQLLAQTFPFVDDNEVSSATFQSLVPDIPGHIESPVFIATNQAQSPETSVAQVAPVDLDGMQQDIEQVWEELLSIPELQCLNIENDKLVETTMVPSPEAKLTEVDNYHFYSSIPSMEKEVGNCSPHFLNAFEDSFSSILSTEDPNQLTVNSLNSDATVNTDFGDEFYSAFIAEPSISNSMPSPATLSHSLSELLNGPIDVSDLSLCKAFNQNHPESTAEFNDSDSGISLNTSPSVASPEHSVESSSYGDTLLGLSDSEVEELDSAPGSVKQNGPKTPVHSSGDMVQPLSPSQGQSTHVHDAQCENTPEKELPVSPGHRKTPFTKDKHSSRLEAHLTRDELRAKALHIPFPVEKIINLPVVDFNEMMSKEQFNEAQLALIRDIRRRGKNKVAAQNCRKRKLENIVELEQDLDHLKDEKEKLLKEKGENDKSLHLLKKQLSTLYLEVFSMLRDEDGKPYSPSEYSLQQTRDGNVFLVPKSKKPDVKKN
Sequence of Keap1/Nrf2 (Q14145 whole entry, the tested form may be a part): as the sequence (Q14145 whole entry, the tested form may be a part) above

For `CCOc1ccc(S(=O)(=O)Nc2cc(CCC(=O)O)c(NS(=O)(=O)c3ccc(OCC)cc3)c3ccccc23)cc1`, the Ratio IC50 in the assay filed under Homo sapiens turned out to be 1.2. In addition, the IC50 – broadly, the concentration that gives 50% inhibition – amounted to 230 nM at Keap1/Nrf2 and 190 nM in assay [1].
For `CCOc1ccc(S(=O)(=O)Nc2ccc(NS(=O)(=O)c3ccc(OCC)cc3)c3ccccc23)cc1` the same measures were 2, 2800 nM and 1400 nM.
For `COc1ccc(S(=O)(=O)Nc2cc(CC(C)=O)c(NS(=O)(=O)c3ccc(OC)cc3)c3ccccc23)cc1`, in the assay listed under Homo sapiens, the Ratio IC50 came out at 1.3. In addition, the IC50 at Keap1/Nrf2 came out at 3200 nM; in assay [1], 2400 nM.
For the compound `CCOc1ccc(S(=O)(=O)Nc2cc(Sc3nc[nH]n3)c(NS(=O)(=O)c3ccc(OCC)cc3)c3ccccc23)cc1`, the Ratio IC50 in the assay listed under Homo sapiens is 1.3. The IC50 on Keap1/Nrf2 came out at 1300 nM; in assay [1] it was 1000 nM.
For `CCOc1ccc(S(=O)(=O)Nc2cc(SCC(=O)OC)c(NS(=O)(=O)c3ccc(OCC)cc3)c3ccccc23)cc1`, in that order: 1.9, 720 nM and 370 nM.
For `CCOc1ccc(S(=O)(=O)Nc2cc(CC(C)=O)c(NS(=O)(=O)c3ccc(OCC)cc3)c3ccccc23)cc1`, in that order: 4.1, 6200 nM and 1500 nM.
For `CCOc1ccc(S(=O)(=O)Nc2cc(CC(=O)O)c(NS(=O)(=O)c3ccc(OCC)cc3)c3ccccc23)cc1` the same measures were 1.4, 320 nM and 230 nM.
Consider `CCOc1ccc(S(=O)(=O)Nc2cc(CCCC(=O)O)c(NS(=O)(=O)c3ccc(OCC)cc3)c3ccccc23)cc1`, for which the Ratio IC50 in the assay filed under Homo sapiens is 1. Moreover, the IC50 at Keap1/Nrf2 was 150 nM.
Take `CCOc1ccc(S(=O)(=O)Nc2cc(SCC(=O)O)c(NS(=O)(=O)c3ccc(OCC)cc3)c3ccccc23)cc1`: in the assay filed under Homo sapiens, the Ratio IC50 was determined as 1.1. In addition, the IC50 on Keap1/Nrf2 is 200 nM; in assay [1] it was 180 nM.
